# Experimental data: patent US6127336A, “Antibacterial and antifungal peptide” (priority 1996, dated 2000)
# No end group written: not given here.
# What was measured:
# Type in all cases: cell-based
# [1] = test system: Clavibacter michiganensis; test: Antibacterial activity by microspectrophotometry
# Protocol: (§1) Pure each strain of bacteria used (E. coli; M. luteus), an isolated […] is suspended in 10 ml of DIFCO PB medium (Poor Broth, Luria Bertani medium free of yeast extract) and incubated at 30° C. overnight with slow stirring.
# (§2) The bacteria to be tested are brought to an optical density at 600 nm of 0.001 in fresh culture medium. 10 μl of each fraction is deposited in microtitration plates in the presence of 100 μl of the bacterial suspension. After incubation for 24 hours at 25° C., the growth is evaluated by measuring the absorbance at 600 nm using a microtitration plate reader.
# (§3) Using the same protocol but with phytopathogenic bacteria, the following results are obtained: […]
# Staphylococcus aureus = test: Antibacterial activity by microspectrophotometry; conditions: Gram +, 24 hours at 25° C., absorbance at 600 nm
# [2] = test system: Fusarium oxysporum meloni; test: Antifungal activity, phytopathogenic fungi
# Protocol: as §1, §2
# (§4) Using the same protocol but with phytopathogenic fungi, the following results are obtained: […]
# Botrytis petuniae = test: Antifungal activity, phytopathogenic fungi
# Protocol: as §1, §2, §4
# Verticilium toreillis = test: Antifungal activity, phytopathogenic fungi
# Protocol: as §1, §2, §4
# Alternaria dauci = test: Antifungal activity, phytopathogenic fungi
# Protocol: as §1, §2, §4
# Stemphyllium = test: Antifungal activity, phytopathogenic fungi
# Protocol: as §1, §2, §4
# Fusarium oxysporum L = test: Antifungal activity, phytopathogenic fungi
# Protocol: as §1, §2, §4
# Salmonella typhimurium = test: Antibacterial activity by microspectrophotometry; conditions: Gram -, 24 hours at 25° C., absorbance at 600 nm
# Aerococcus viridans = test: Antibacterial activity by microspectrophotometry; conditions: Gram +, 24 hours at 25° C., absorbance at 600 nm
# Bacillus subtilis = test: Antibacterial activity by microspectrophotometry; conditions: Gram +, 24 hours at 25° C., absorbance at 600 nm
# [3] = test system: Pseudomonas syringae pv syringae; test: Antibacterial activity, phytopathogenic bacteria; conditions: same protocol
# Protocol: as §1, §2, §3
# Xanthomonas phaseolica = test: Antibacterial activity, phytopathogenic bacteria; conditions: same protocol
# Protocol: as §1, §2, §3
# Pseudomonas syr phaseoli = test: Antibacterial activity, phytopathogenic bacteria; conditions: same protocol
# Protocol: as §1, §2, §3
# Pseudomonas maculicola = test: Antibacterial activity, phytopathogenic bacteria; conditions: same protocol
# Protocol: as §1, §2, §3
# [4] = test system: Xanthomonas vesicatoria 687.3; test: Antibacterial activity, phytopathogenic bacteria; conditions: same protocol
# Protocol: as §1, §2, §3
# Pseudomonas valerianella = test: Antibacterial activity, phytopathogenic bacteria; conditions: same protocol
# Protocol: as §1, §2, §3
# [5] = test system: Xanthomonas vesicatoria B229RI; test: Antibacterial activity, phytopathogenic bacteria; conditions: same protocol
# Protocol: as §1, §2, §3
# Pseudomonas syringae = test: Antibacterial activity, phytopathogenic bacteria; conditions: same protocol
# Protocol: as §1, §2, §3
# [6] = test system: Xanthomonas campestris pv campestris; test: Antibacterial activity, phytopathogenic bacteria; conditions: same protocol
# Protocol: as §1, §2, §3
# bovine red blood cells = test: Hemolytic test; conditions: synthetic molecule
# Protocol: (§5) All of the antibacterial and hemolytic tests are carried out with the synthetic molecule.
# porcine red blood cells = test: Hemolytic test; conditions: synthetic molecule
# Protocol: as §5
# Escherichia coli D31 = test: Antibacterial activity by microspectrophotometry; conditions: Escherichia coli D31, Gram -; 24 hours at 25° C., absorbance at 600 nm
# Protocol: as §1, §2
# Micrococcus luteus = test: Antibacterial activity by microspectrophotometry
# Protocol: as §1, §2
# Escherichia coli D22 = test: Antibacterial activity by microspectrophotometry; conditions: Escherichia coli D22, Gram -; 24 hours at 25° C., absorbance at 600 nm
# Protocol: as §1, §2
# [7] = medium supplemented with 1 mM CaCl2 and 20 mM KCl
substance,measurement,setting,value
androctonine (RSVCRQIKICRRRGGCYYLCTNRPY; disulfide (positions not given here)) [peptide from scorpion Androctonus australis hemolymph; 4 cysteine residues in two intramolecular disulfide bridges; tests done with the synthetic molecule],MIC,"[1]; Clavibacter michi ganensis, Gram +, Table 1, 24 hours at 25° C., absorbance at 600 nm",6 to 15 µM
same,MIC,"[1]; Clavibacter michiganensis, Table 2, phytopathogenic bacteria, same protocol",6 to 15 µM
same,MIC,Staphylococcus aureus,15 to 30 µM
same,MIC without salts,[2],2 to 4 µM
same,MIC with salts,Botrytis petuniae; [7],> 32 µM
same,MIC without salts,Botrytis petuniae; without salts,4 to 8 µM
same,MIC with salts,Verticilium toreillis; [7],> 32 µM
same,MIC without salts,Verticilium toreillis; without salts,2 to 4 µM
same,MIC with salts,Alternaria dauci; [7],16 to 32 µM
same,MIC without salts,Alternaria dauci; without salts,4.1 to 8.2 µM
same,MIC with salts,Stemphyllium; [7],16 to 32 µM
same,MIC without salts,Stemphyllium; without salts,4 to 8 µM
same,MIC with salts,Fusarium oxysporum L; [7],> 32 µM
same,MIC without salts,Fusarium oxysporum L; without salts,2 to 4 µM
same,MIC,Salmonella typhimurium,3 to 6 µM
same,MIC,Aerococcus viridans,0.3 to 0.6 µM
same,MIC,Bacillus subtilis,1.5 to 3.0 µM
same,MIC,[3],15 to 22 µM
same,MIC,Xanthomonas phaseolica,1 to 2 µM
same,MIC,Pseudomonas syr phaseoli,2 to 4 µM
same,MIC,Pseudomonas maculicola,3 to 6 µM
same,MIC,[4],1.5 to 3 µM
same,MIC,Pseudomonas valerianella,15 to 22 µM
same,MIC,[5],1.5 to 3 µM
same,MIC,Pseudomonas syringae,0.5 to 1 µM
same,MIC,[6],3 to 6 µM
same,lytic effect on red blood cells,bovine red blood cells,no lytic effect
same,lytic effect on red blood cells,porcine red blood cells,no lytic effect
same,MIC,Escherichia coli D31,3 to 6 µM
same,MIC,"Micrococcus luteus; Micrococcus luteus, Gram +, 24 hours at 25° C., absorbance at 600 nm",0.6 to 1.5 µM
same,antibacterial activity of synthetic molecule compared with native molecule,"Micrococcus luteus; bacterium Micrococcus liteus, synthetic (FMOC, renatured) vs native",same antibacterial activity as the native molecule
same,MIC,Escherichia coli D22,> 30 µM
